Measurements published in ChEMBL document CHEMBL4118225, “Development, Optimization, and Structure-Activity Relationships of Covalent-Reversible JAK3 Inhibitors Based on a Tricyclic Imidazo[5,4- d]pyrrolo[2,3- b]pyridine Scaffold” (J Med Chem, 2018).
Converted amounts (≈) assume the structure as drawn. One block for each molecule: values may come before it.

Legend:
[1] = target: Non-receptor tyrosine-protein kinase TYK2 (Homo sapiens, UniProt P29597)
[2] = target: T1, Tyrosine-protein kinase JAK1 (Homo sapiens, UniProt P23458)
T1 sequence (P23458 whole entry): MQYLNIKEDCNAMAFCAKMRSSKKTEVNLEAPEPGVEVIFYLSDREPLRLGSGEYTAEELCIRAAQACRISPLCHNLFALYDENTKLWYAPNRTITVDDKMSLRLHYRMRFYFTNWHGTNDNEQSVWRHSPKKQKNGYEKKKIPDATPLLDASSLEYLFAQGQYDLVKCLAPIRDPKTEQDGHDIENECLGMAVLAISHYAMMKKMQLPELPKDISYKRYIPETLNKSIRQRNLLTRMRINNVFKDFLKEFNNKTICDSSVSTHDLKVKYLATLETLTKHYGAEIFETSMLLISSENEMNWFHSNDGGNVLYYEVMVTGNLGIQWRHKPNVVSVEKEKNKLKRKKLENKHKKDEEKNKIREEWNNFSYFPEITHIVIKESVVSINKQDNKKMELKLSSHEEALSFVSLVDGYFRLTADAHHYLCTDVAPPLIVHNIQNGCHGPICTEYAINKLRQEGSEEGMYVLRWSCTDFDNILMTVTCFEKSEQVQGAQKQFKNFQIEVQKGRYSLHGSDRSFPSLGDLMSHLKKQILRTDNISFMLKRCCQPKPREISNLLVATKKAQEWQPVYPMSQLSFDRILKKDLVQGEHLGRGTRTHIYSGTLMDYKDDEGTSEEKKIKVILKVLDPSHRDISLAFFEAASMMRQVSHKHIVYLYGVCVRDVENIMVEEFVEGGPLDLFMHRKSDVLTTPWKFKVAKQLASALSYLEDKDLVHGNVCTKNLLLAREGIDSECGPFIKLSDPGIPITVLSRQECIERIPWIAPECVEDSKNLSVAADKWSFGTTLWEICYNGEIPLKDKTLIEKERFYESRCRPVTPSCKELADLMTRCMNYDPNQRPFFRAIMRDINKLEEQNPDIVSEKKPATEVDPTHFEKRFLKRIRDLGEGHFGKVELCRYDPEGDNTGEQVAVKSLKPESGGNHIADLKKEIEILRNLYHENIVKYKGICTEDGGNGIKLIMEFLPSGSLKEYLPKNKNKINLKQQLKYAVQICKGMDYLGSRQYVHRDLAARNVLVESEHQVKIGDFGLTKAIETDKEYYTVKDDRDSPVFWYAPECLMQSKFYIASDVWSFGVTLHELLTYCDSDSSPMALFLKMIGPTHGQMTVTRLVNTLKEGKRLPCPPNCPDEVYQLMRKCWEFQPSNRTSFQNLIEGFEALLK
Description: Inhibition of human JAK1 using poly[Glu:Tyr] (4:1) as substrate in presence of 10 uM [gamma33P]ATP by radiometric method

[3] = target: T2, Tyrosine-protein kinase JAK2 (Homo sapiens, UniProt O60674)
T2 sequence (O60674 whole entry): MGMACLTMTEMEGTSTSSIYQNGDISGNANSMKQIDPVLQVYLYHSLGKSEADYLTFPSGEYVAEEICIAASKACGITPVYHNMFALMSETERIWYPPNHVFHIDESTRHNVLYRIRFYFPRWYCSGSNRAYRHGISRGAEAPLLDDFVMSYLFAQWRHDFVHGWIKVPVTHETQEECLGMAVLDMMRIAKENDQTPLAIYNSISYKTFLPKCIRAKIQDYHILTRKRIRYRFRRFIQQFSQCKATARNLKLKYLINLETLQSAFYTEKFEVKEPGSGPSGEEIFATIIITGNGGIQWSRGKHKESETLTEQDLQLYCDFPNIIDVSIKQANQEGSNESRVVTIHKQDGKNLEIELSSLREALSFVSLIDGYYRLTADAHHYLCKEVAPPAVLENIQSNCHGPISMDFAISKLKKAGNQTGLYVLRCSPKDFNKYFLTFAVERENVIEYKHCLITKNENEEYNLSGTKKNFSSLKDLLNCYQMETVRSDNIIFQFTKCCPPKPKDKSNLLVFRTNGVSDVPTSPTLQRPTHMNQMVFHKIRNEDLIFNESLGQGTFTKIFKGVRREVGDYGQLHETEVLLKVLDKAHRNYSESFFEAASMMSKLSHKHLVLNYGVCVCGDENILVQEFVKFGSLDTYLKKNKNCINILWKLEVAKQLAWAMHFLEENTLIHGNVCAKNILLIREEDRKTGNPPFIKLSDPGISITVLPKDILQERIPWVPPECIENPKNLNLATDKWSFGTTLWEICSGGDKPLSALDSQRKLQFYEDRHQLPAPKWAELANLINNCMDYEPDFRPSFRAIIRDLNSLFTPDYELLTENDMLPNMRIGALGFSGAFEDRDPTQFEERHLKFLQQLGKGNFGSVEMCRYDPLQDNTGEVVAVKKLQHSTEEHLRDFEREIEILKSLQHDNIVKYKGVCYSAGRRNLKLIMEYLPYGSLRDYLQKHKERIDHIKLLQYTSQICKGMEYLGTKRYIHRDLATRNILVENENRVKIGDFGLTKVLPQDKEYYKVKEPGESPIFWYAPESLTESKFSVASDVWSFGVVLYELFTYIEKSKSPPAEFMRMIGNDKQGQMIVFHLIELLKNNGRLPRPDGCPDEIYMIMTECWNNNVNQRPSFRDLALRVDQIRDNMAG
Description: Inhibition of human JAK2 using poly[Glu:Tyr] (4:1) as substrate in presence of 10 uM [gamma33P]ATP by radiometric method

[4] = Metabolic stability in mouse liver microsomes assessed as parent compound remaining at 100 uM after 180 mins in presence of NADPH regenerating system by LC-MS analysis; type: ADME, microsome; settings: read-out: Stability
[5] = Thiol reactivity in kinase assay buffer in presence of DTT; type: physicochemical
[6] = target: T3, Tyrosine-protein kinase JAK3 (Homo sapiens, UniProt P52333)
T3 sequence (P52333 whole entry): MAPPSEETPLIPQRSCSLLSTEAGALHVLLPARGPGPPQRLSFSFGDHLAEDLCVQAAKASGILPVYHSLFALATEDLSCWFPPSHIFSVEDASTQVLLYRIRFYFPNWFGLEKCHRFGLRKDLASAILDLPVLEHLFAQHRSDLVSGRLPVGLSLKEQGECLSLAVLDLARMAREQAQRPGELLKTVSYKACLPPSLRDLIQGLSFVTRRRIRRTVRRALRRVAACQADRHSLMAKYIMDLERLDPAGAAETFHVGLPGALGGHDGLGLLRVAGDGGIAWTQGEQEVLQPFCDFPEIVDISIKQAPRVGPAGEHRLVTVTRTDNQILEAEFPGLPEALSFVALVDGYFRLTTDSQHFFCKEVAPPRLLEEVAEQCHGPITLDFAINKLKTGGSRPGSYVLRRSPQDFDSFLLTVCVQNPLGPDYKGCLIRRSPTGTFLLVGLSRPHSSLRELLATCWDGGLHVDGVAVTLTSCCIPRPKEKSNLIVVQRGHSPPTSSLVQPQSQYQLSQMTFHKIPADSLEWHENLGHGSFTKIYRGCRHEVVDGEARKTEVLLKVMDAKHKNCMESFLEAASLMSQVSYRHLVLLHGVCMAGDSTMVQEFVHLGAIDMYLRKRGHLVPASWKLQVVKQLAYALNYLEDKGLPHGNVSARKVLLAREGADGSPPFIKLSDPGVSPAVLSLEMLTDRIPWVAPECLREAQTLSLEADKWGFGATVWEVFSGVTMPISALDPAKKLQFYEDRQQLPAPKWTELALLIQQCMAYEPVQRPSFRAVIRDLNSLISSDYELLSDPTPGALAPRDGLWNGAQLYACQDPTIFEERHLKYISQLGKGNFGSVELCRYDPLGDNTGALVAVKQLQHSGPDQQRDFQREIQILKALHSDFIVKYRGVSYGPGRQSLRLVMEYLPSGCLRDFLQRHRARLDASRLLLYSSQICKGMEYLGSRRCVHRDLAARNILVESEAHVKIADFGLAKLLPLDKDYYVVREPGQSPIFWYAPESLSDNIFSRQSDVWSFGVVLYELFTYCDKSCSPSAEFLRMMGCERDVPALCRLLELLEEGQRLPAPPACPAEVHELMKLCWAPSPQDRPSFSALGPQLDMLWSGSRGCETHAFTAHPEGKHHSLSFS
Description: Inhibition of kinase tracer-05 binding to C-terminal NanoLuc tagged full length JAK3 (unknown origin) expressed in HEK cells by NanoBRET assay

[7] = target: T3, Tyrosine-protein kinase JAK3; remark: listed apart in the source
[8] = Metabolic stability in human whole blood assessed as parent compound remaining at 1 uM after 180 mins by LC-MS analysis; type: ADME, tissue-based; settings: read-out: Stability
[9] = target: T3, Tyrosine-protein kinase JAK3; remark: listed apart in the source
Description: Inhibition of recombinant human JAK3 (781 to 1124 residues) expressed in baculovirus expression system assessed as reduction in polypeptide substrate phosphorylation in presence of ATP by ELISA

[10] = target: T2, Tyrosine-protein kinase JAK2; experiment: Inhibition of kinase tracer-05 binding to C-terminal NanoLuc tagged full length JAK2 (unknown origin) expressed in HEK cells by NanoBRET assay; type: cell-based
[11] = target: Tyrosine-protein kinase BTK (Homo sapiens, UniProt Q06187); experiment: Inhibition of kinase tracer-05 binding to C-terminal NanoLuc tagged full length BTK (unknown origin) expressed in HEK cells by NanoBRET assay; type: cell-based
Tyrosine-protein kinase BTK, sequence (Q06187 whole entry): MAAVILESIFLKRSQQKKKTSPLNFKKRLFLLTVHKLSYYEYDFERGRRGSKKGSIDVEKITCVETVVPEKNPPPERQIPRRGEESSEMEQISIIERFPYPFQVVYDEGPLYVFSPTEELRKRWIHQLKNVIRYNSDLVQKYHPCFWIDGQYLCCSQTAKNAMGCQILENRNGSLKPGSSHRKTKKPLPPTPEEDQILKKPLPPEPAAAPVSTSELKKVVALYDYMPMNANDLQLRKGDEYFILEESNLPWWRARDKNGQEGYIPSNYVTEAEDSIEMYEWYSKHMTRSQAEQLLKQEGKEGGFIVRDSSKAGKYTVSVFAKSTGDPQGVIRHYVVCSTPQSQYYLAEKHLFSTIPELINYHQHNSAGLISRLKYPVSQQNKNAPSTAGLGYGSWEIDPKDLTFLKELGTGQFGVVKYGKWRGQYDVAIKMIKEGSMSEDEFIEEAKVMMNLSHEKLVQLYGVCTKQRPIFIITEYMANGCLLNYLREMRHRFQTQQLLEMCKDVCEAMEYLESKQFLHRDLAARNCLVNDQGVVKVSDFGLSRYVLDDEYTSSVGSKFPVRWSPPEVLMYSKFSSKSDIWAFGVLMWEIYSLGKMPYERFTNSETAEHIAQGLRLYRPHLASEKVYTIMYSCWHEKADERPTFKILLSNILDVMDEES

[12] = target: T1, Tyrosine-protein kinase JAK1; remark: listed apart in the source
Description: Inhibition of kinase tracer-04 binding to C-terminal NanoLuc tagged full length JAK1 (unknown origin) expressed in HEK cells by NanoBRET assay

[13] = Aqueous solubility in pH 7.4 PBS buffer by HPLC analysis; type: physicochemical
[14] = Half life in human whole blood at 1 uM by LC-MS analysis; type: ADME, tissue-based
[15] = Aqueous solubility in HEPES buffer; type: physicochemical

Non-receptor tyrosine-protein kinase TYK2, sequence (P29597 whole entry): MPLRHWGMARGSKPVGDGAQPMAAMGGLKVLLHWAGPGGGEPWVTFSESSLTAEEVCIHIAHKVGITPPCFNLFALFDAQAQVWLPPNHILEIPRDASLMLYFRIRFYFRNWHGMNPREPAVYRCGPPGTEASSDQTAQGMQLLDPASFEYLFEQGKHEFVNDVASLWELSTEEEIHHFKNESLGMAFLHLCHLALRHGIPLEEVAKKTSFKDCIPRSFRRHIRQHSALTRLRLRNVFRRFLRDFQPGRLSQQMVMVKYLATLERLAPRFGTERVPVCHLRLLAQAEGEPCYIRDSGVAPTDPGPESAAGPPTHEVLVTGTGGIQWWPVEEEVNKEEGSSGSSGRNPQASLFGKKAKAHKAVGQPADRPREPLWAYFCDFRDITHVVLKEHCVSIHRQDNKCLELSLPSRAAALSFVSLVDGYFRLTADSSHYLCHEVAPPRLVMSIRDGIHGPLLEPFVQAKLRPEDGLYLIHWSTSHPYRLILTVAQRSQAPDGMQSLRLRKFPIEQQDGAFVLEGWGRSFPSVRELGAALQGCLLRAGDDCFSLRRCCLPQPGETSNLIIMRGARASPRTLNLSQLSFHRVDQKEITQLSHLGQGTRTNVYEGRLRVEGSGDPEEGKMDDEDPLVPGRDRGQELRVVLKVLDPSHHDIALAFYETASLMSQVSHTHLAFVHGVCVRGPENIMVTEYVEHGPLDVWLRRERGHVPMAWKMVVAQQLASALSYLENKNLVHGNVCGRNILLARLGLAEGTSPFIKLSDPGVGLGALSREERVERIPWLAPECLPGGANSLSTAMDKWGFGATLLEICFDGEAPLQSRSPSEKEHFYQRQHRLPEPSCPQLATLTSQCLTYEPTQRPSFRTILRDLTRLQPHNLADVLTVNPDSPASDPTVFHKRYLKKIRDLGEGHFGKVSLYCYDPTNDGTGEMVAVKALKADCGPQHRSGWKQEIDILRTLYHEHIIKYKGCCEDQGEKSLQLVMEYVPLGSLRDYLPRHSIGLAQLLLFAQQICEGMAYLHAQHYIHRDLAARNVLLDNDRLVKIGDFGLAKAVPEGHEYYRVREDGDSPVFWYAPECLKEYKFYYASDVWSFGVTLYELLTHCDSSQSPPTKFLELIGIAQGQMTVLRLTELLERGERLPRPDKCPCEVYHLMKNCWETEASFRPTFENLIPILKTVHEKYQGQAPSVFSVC

Compound: CC(C)(O)C(=O)N1CCN(c2ccc(C(F)(F)F)c(C3=C(c4c[nH]c5ccccc45)C(=O)NC3=O)c2)CC1
- IC50 [1]: 2110 nM
- IC50 [2]: 344 nM

Compound: N#CC(C#N)=Cc1ccc(-c2nc3cnc4[nH]ccc4c3n2C2CCCCC2)o1
- IC50 [3]: 188 nM
- remaining at 3 h, 100 µM [4]: 11%
- Drug metabolism [5]: Metabolite_Detected
- IC50 [1]: 14 nM
- EC50 [6]: 678 nM
- IC50 [7]: 0.39 nM
- remaining at 3 h, 1 µM [8]: 1.5%
- IC50 [9]: 4 nM
- IC50 [2]: 4 nM
- EC50 [10]: 630 nM
- EC50 [11]: 5790 nM
- EC50 [12]: 7660 nM

Compound: CN1CCN(C(=O)C(C#N)=Cc2ccc(-c3nc4cnc5[nH]ccc5c4n3C3CCCCC3)o2)CC1
- IC50 [3]: 765 nM
- remaining at 3 h, 100 µM [4]: 6.9%
- IC50 [1]: 791 nM
- EC50 [6]: 257 nM
- IC50 [7]: 0.74 nM
- remaining at 3 h, 1 µM [8]: 47%
- IC50 [9]: 14 nM
- IC50 [2]: 117 nM
- solubility [13]: 248 µM (≈ 120 µg/mL)
- EC50 [10]: > 10000 nM
- half-life at 1 µM [14]: 3 h
- EC50 [11]: > 10000 nM
- EC50 [12]: > 10000 nM

Compound: CN(C)C(=O)CCc1ccc(-c2nc3cnc4[nH]ccc4c3n2C2CCCCC2)o1
- IC50 [3]: 183 nM
- IC50 [1]: 139 nM
- IC50 [7]: 48 nM
- IC50 [9]: 181 nM
- IC50 [2]: 45 nM

Compound: N#CC(C#N)=Cc1ccc(-c2nc3cnc4[nH]ccc4c3n2C2CCCCC2)cc1
- Drug metabolism [5]: Metabolite_Detected
- IC50 [9]: 30 nM

Compound: N#C/C=C/c1ccc(-c2nc3cnc4[nH]ccc4c3n2C2CCCCC2)cc1
- IC50 [9]: 390 nM

Compound: N#CCCc1ccc(-c2nc3cnc4[nH]ccc4c3n2C2CCCCC2)o1
- IC50 [3]: 48 nM
- IC50 [1]: 25 nM
- IC50 [7]: 10 nM
- IC50 [9]: 129 nM
- IC50 [2]: 16 nM

Compound: CN(C)C(=O)C(C#N)=Cc1ccc(-c2nc3cnc4[nH]ccc4c3n2C2CCCCC2)o1
- remaining at 3 h, 100 µM [4]: 58%
- remaining at 3 h, 1 µM [8]: 49.4%
- solubility [13]: 56 µM (≈ 24 µg/mL)
- half-life at 1 µM [14]: 3 h
- EC50 [11]: > 10000 nM

Compound: N#C/C=C/c1ccc(-c2nc3cnc4[nH]ccc4c3n2C2CCCCC2)o1
- IC50 [3]: 53 nM
- remaining at 3 h, 100 µM [4]: 53.9%
- IC50 [1]: 44 nM
- EC50 [6]: 740 nM
- IC50 [7]: 0.21 nM
- remaining at 3 h, 1 µM [8]: 98.8%
- IC50 [9]: 27 nM
- IC50 [2]: 12 nM
- EC50 [10]: 7710 nM
- EC50 [11]: 13300 nM
- EC50 [12]: > 10000 nM

Compound: CNC(=O)C(C#N)=Cc1ccc(-c2nc3cnc4[nH]ccc4c3n2C2CCCCC2)o1
- IC50 [9]: 23 nM

Compound: N#CCCc1ccc(-c2nc3cnc4[nH]ccc4c3n2C2CCCCC2)cc1
- IC50 [9]: 436 nM

Compound: CN(C)C(=O)C(C#N)=Cc1ccc(-c2nc3cnc4[nH]ccc4c3n2C2CCCCC2)cc1
- IC50 [9]: 571 nM

Compound: CN(C)C(=O)C(C#N)=Cc1ccc(-c2nc3cnc4[nH]ccc4c3n2C)o1
- IC50 [9]: 368 nM

Compound: NC(=O)/C=C/c1ccc(-c2nc3cnc4[nH]ccc4c3n2C2CCCCC2)o1
- IC50 [9]: 129 nM

Compound: CN(C)C(=O)C(C#N)=Cc1cccc(-c2nc3cnc4[nH]ccc4c3n2C2CCCCC2)c1
- IC50 [9]: 205 nM

Compound: CN(C)C(=O)C(C#N)=Cc1ccc(-c2nc3cnc4c(ccn4C)c3n2C2CCCCC2)o1
- IC50 [9]: > 10000 nM

Continued, values first:

- IC50 [9]: 59 nM
Compound: NC(=O)CCc1ccc(-c2nc3cnc4[nH]ccc4c3n2C2CCCCC2)o1

- Drug metabolism [5]: Metabolite_Detected
- IC50 [9]: 11 nM
Compound: N#CC(C#N)=Cc1cccc(-c2nc3cnc4[nH]ccc4c3n2C2CCCCC2)c1

- IC50 [9]: 499 nM
Compound: NC(=O)CCc1ccc(-c2nc3cnc4[nH]ccc4c3n2C2CCCCC2)cc1

- IC50 [9]: 642 nM
Compound: CN(C)C(=O)CCc1ccc(-c2nc3cnc4[nH]ccc4c3n2C2CCCCC2)cc1

- solubility [15]: Insoluble
- IC50 [9]: > 1000 nM
Compound: NC(=O)/C=C/c1ccc(-c2nc3cnc4[nH]ccc4c3n2C2CCCCC2)cc1

- IC50 [9]: 490 nM
Compound: NC(=O)CCc1cccc(-c2nc3cnc4[nH]ccc4c3n2C2CCCCC2)c1

- IC50 [9]: 135 nM
Compound: N#C/C=C/c1cccc(-c2nc3cnc4[nH]ccc4c3n2C2CCCCC2)c1

- IC50 [9]: 678 nM
Compound: CN(C)C(=O)CCc1cccc(-c2nc3cnc4[nH]ccc4c3n2C2CCCCC2)c1

- IC50 [9]: 505 nM
Compound: N#CCCc1cccc(-c2nc3cnc4[nH]ccc4c3n2C2CCCCC2)c1
